Earlier results in US12708515B2, “Valved devices, treatments and methods to restore tissue elastic recoil” (priority 2021, dated 2026).

Legend:
E. coli = conditions: cysteine terminated peptide; second value of the pair
E. coli and E. faecalis = conditions: physiologically relevant conditions

Substance: LasioglossinIII
- anti-biofilm (E. coli): 40% (anti-biofilm)
- antimicrobial activity of coated catheters (E. coli and E. faecalis): potent antimicrobial activity
